The values that follow come from patent EP4563571A1, “PRMT5 INHIBITORS” (Beijing Earthwise Technology Co., Ltd., priority 2022, dated 2024).

This test concerns HCT116^MTAP Deletion cells. The test is described as follows: Anti-proliferation assay on cells (Cell-Titer Glo, 10 days). It is filed as cell-based. The conditions noted are these: HCT116^MTAP Deletion cells, 10 days incubation, CTG readout; read-out: HCT116^MTAP Deletion GI50. The protocol: HCT116^MTAP Deletion cells were from Pharmaron (China); HCT116 cells were from ATCC; McCoy's 5A medium was purchased from Invitrogen (USA); penicillin-streptomycin and fetal bovine serum were purchased from Gibco (USA); a 384-well plate was purchased from PerkinElmer (USA); and Cell-Titer Glo reagent was purchased from Promega (USA).
Compound dissolution: All the compounds were dissolved in dimethyl sulfoxide (DMSO) and then stored. The compounds were stored at room temperature in a dry condition for 3 months for short term storage or at -20 °C for long term storage.
Cell culture and passaging
The cells were cultured strictly in accordance with ATCC requirements. The cell culture medium (McCoy's 5A medium + 10% fetal bovine serum + 1% penicillin + streptomycin) was transferred to a 15 mL centrifuge tube and centrifuged at 1000 rpm for 5 min. The supernatant was removed. The cells were resuspended with complete culture medium, inoculated into a culture dish at the required density, and cultured in an incubator at 37 °C, 95% humid air, and 5% carbon dioxide. The culture medium was replenished or the cells were passaged every 2-3 days depending on the cell growth condition.
Cell proliferation activity assay
When the confluency of cells in the culture dish reached about 90%, the cells were washed twice with PBS, and then treated with trypsin to become single cells. The cells were counted, and 40µl of the cells was inoculated into each well of a 384-well plate (50 cells/well). The plate was equilibrated at 37 °C and 5% carbon dioxide for 10 to 15 minutes. The compounds were injected into the 384-well plate using Echo550, and positive control and negative control (0.1% DMSO) were set up. Each compound was subjected to a 3-fold dilution, resulting in 10 concentration gradients, in duplicate, and the content of DMSO was 0.1%. The 384-well plate was incubated in a cell culture incubator for 10 days.
Then, 40 µl of cell proliferation assay reagent (CTG) was added to the 384-well plate, and the plate was shaken to mix well. Then, the 384-well plate was incubated at 37 °C and 5% carbon dioxide in the dark for 30 minutes. The data were read using the Envision multifunctional microplate reader. […] According to the different drug concentrations and their corresponding inhibition rates, the GI50 curve was drawn using GraphPad 8.0 software. The data were analyzed, and the final IC50 value was obtained.
A word on the GI50: it is the concentration giving 50% growth inhibition. `CCC(C)N(Cc1ccc(C(F)(F)F)cn1)C(=O)C(=O)Nc1cnc(N)c2c1cnn2C` (racemic) [Example 46-P1]: the GI50 lay within 10 to 100 nM.
Next, `CN(C(=O)C(=O)Nc1cnc(N)c2c1cnn2C)C1COCc2c(F)cc(Cl)cc21` (racemic) [compound 155]: 10 to 100 nM; `Cc1cc(NC(=O)C(=O)N(C)C2COCc3cc(C4=CCOCC4)ccc32)cnc1N` (racemic) [compound 162]: 100 to 1000 nM; `CN(C(=O)C(=O)Nc1cnc(N)c2c1cnn2C)C1COCc2c1ccc(Cl)c2Cl` (racemic) [compound 168]: under 10 nM.
`CN(C(=O)C(=O)Nc1cnc(N)c2c1cnn2C)C1COc2cc(F)c(F)cc21` (racemic) [compound 172]: the GI50 lay within 10 to 100 nM.
Next, `CN(C(=O)C(=O)Nc1cnc(N)c2c1cnn2C)C1COCc2cc(C3=CCC(F)(F)CC3)ccc21` (racemic) [compound 174]: under 10 nM; `CN(C(=O)C(=O)Nc1cnc(N)c2c1cnn2C)C1COc2cc(Br)ccc21` (racemic) [compound 180]: under 10 nM; `Cc1ncc(-c2ccc3c(c2)COCC3N(C)C(=O)C(=O)Nc2cnc(N)c3c2cnn3C)s1` (racemic) [compound 181]: under 10 nM.
Next, `CN(C(=O)C(=O)Nc1cnc(N)c2c1cnn2C)C1COCc2cc(Br)ccc21` (racemic) [compound 182]: under 10 nM; `CN(C(=O)C(=O)Nc1cnc(N)c2c1cnn2C)C1COc2cc(Cl)c(Cl)cc21` (racemic) [compound 186]: under 10 nM; `CN(C(=O)C(=O)Nc1cnc(N)c2c1cnn2C)C1COc2cc(-c3ccnn3C)ccc21` (racemic) [compound 192]: under 10 nM.
Next, `Cc1ncc(-c2ccc3c(n2)COCC3N(C)C(=O)C(=O)Nc2cnc(N)c3c2cnn3C)s1` (racemic) [compound 209]: under 10 nM; `CN(C(=O)C(=O)Nc1cnc(N)c2c1cnn2C)C1COCc2cc(-c3cnn(C4CC4)c3)ccc21` (racemic) [compound 223]: under 10 nM; `CN(C(=O)C(=O)Nc1cnc(N)c2c1cnn2C)C1COCc2cc(-c3cnn(C(F)(F)F)c3)ccc21` (racemic) [compound 231]: under 10 nM.
In the case of `CCC(C)N(Cc1ccc(C(F)(F)F)cn1)C(=O)C(=O)Nc1cnc(OC)c(C(N)=O)c1` (single isomer, unassigned) [Example 5-P1], the GI50 lay in the range of 10 to 100 nM.
Next, `CCC(C)N(Cc1ccc(C(F)(F)F)cn1)C(=O)C(=O)Nc1cnc(OC)c(C(N)=O)c1` (single isomer, unassigned) [Example 5-P2]: 10 to 100 nM.
As for `Cc1cc(NC(=O)C(=O)N(Cc2ccc(C(F)(F)F)cn2)C2CCCOC2)cnc1N` (single isomer, unassigned) [Example 14-P1], the figure is 100 to 1000 nM; as for `Cc1cc(NC(=O)C(=O)N(Cc2ccc(C(F)(F)F)cn2)C2CCCOC2)cnc1N` (single isomer, unassigned) [Example 14-P2], 100 to 1000 nM.
As for `Cc1cc(NC(=O)C(=O)N(Cc2ccc(C(F)(F)F)cn2)C(C)c2cscn2)cnc1N` (single isomer, unassigned) [Example 19-P1], the figure is 10 to 100 nM; as for `Cc1cc(NC(=O)C(=O)N(Cc2ccc(C(F)(F)F)cn2)C(C)c2cscn2)cnc1N` (single isomer, unassigned) [Example 19-P2], 10 to 100 nM.
Take `CCC(C)N(Cc1ccc(C(F)(F)F)cn1)C(=O)C(=O)Nc1cnc(N)c(C)c1` (single isomer, unassigned) [Example 45-P1]: the GI50 was in the range of 10 to 100 nM.
Consider `CCC(C)N(Cc1ccc(C(F)(F)F)cn1)C(=O)C(=O)Nc1cnc(N)c(C)c1` (single isomer, unassigned) [Example 45-P2], for which the concentration for 50% growth inhibition (GI50) was 10 to 100 nM.
Next, `CC1OCc2c(NC(=O)C(=O)N(C)C3COCc4cc(C(F)(F)F)ccc43)cnc(N)c21` (single isomer, unassigned) [Example 146-P1]: 100 to 1000 nM; `CC1OCc2c(NC(=O)C(=O)N(C)C3COCc4cc(C(F)(F)F)ccc43)cnc(N)c21` (single isomer, unassigned) [Example 146-P2]: 10 to 100 nM; `CN(C(=O)C(=O)Nc1cnc(N)c2c1cnn2C)C1COCc2nc(C(F)(F)F)ccc21` (single isomer, unassigned) [Example 152-P1]: 100 to 1000 nM.
As for `CN(C(=O)C(=O)Nc1cnc(N)c2c1cnn2C)C1COc2cc(C3=CCOCC3)ccc21` (single isomer, unassigned) [Example 153-P1], the figure is under 10 nM.
Next, `CN(C(=O)C(=O)Nc1cnc(N)c2c1cnn2C)C1COc2cc(C3=CCOCC3)ccc21` (single isomer, unassigned) [Example 153-P2]: 100 to 1000 nM.
As for `Cc1cc(NC(=O)C(=O)N(C)Cc2ccc(C(F)(F)F)cn2)cnc1N` [Example 3], the GI50 lay in the range of 1000 to 10000 nM.
For `Cn1ncc2c(NC(=O)C(=O)N(Cc3ccc(C(F)(F)F)cn3)CC3CCC3)cnc(N)c21` [Example 4], the concentration for 50% growth inhibition (GI50) fell in the range of 10 to 100 nM.
Next, `Cc1cc(/C=C/C(=O)N(Cc2ccc(C(F)(F)F)cn2)[C@H](C)c2ncccn2)cnc1N` [Example 6]: over 10000 nM.
Turning to `Cc1cc(C2CC2C(=O)N(Cc2ccc(C(F)(F)F)cn2)[C@H](C)c2ncccn2)cnc1N` (stereo partly shown) [Example 7], the 50% growth inhibitory concentration (GI50) was over 10000 nM.
In the case of `CCC(C)N(Cc1ccc(C(F)(F)F)cn1)C(=O)C(=O)Nc1cnc(N)c2c1COC2C` (stereo not shown) [Example 10], the 50% growth inhibitory concentration (GI50) lay in the range of 10 to 100 nM.
Next, `Cc1cc(NC(=O)C(=O)N(Cc2ccc(C(F)(F)F)cn2)C2CCCC2)cnc1N` [Example 11]: 100 to 1000 nM.
As for `Cc1cc(NC(=O)C(=O)N(Cc2ccc(C(F)(F)F)cn2)C2CC2)cnc1N` [Example 12], the GI50 was in the range of 100 to 1000 nM.
As for `Cc1cc(NC(=O)C(=O)N(Cc2ccc(C(F)(F)F)cn2)C2CCC2)cnc1N` [Example 13], the figure is 100 to 1000 nM.
Next, `Cc1cc(NC(=O)C(=O)N(Cc2ccc(C(F)(F)F)cn2)CC2CC2)cnc1N` [Example 15]: 10 to 100 nM; `Cc1cc(NC(=O)C(=O)N(Cc2ccc(C(F)(F)F)cn2)CC2CCC2)cnc1N` [Example 16]: 10 to 100 nM; `Cc1cc(NC(=O)C(=O)N(Cc2ccc(C(F)(F)F)cn2)CC2CCCC2)cnc1N` [Example 17]: 10 to 100 nM.
As for `Cc1cc(NC(=O)C(=O)N(Cc2ccc(C(F)(F)F)cn2)c2cnn(C)c2)cnc1N` [Example 18], the figure is 100 to 1000 nM.
With `C[C@H](c1ncccn1)N(Cc1ccc(C(F)(F)F)cn1)C(=O)C(=O)Nc1cnc(N)c(F)c1` [Example 22], the 50% growth inhibitory concentration (GI50) lay within 1000 to 10000 nM.
Next, `C[C@H](c1ncccn1)N(Cc1ccc(C(F)(F)F)cn1)C(=O)C(=O)Nc1cnc(N)c(Cl)c1` [Example 23]: 1000 to 10000 nM; `C[C@H](c1ncccn1)N(Cc1ccc(C(F)(F)F)cn1)C(=O)C(=O)Nc1cnc(N)c(Br)c1` [Example 24]: 100 to 1000 nM.
Next, `COc1ncc(NC(=O)C(=O)N(Cc2ccc(C(F)(F)F)cn2)[C@H](C)c2ncccn2)cc1C(N)=O` [Example 25]: 10 to 100 nM; `Cc1cc(N)ncc1NC(=O)C(=O)N(Cc1ccc(C(F)(F)F)cn1)[C@H](C)c1ncccn1` [Example 26]: 100 to 1000 nM; `Cc1nc(NC(=O)C(=O)N(Cc2ccc(C(F)(F)F)cn2)[C@H](C)c2ncccn2)cnc1N` [Example 27]: 100 to 1000 nM.
Next, `Cc1cc(NC(=O)C(=O)N(Cc2ccc(C#N)cn2)[C@H](C)c2ncccn2)cnc1N` [Example 28]: 1000 to 10000 nM.
